PMC9732823, “Discovery of Dual Aβ/Tau Inhibitors and Evaluation of Their Therapeutic Effect on a Drosophila Model of Alzheimer’s Disease” (ACS Chemical Neuroscience, 2022)
Where two headings read alike, the source gives them in different places.

Columns and labels:
Tau protein = molecular target: T1, Tau protein (Homo sapiens, UniProt P10636); test: Inhibition of Tau aggregation in intact E. coli cells overexpressing Tau (ThS fluorescence); assay type: cell-based, Escherichia coli; conditions: for inhibition at 10 µM: read-out: % inhibition Tau aggregation @ 10 μM, intact E. coli cells, compound 10 μM, mean ± SEM of four independent experiments; for % inhibition Tau aggregation @ 10 μM: intact E. coli cells, compound 10 μM, mean ± SEM of four independent experiments
T1 construct: expressed in transfected cells; host or cells: Escherichia coli BL21 (DE3) with pTARA and pRKT42
Description: (§1) As it would have been labor-intensive and expensive to screen such a number of compounds in two separate antiaggregating studies using recombinant Aβ and Tau, we turned our attention to a simple model of protein aggregation, namely, the intact Escherichia coli (E. coli) cells overexpressing Aβ42 and Tau proteins.[28],[29] Building on the fact that inclusion bodies produced by overexpression of these proteins in E. coli mainly consist of fibrillar aggregates, this simple screening method uses bacteria as an in vivo reservoir for tracking the inhibition of amyloid-type protein aggregation in real time, using the amyloid dye thioflavin S (ThS). Of note, this screening has already been used for the evaluation of libraries of antiaggregating compounds.[28]−[38]
E. coli BL21 (DE3) competent cells were transformed with pTARA containing the RNA-polymerase gen of the T7 phage (T7RP) under the control of the promoter PBAD. E. coli BL21 (DE3) with pTARA competent cells were transformed with the pRKT42 vector encoding four repeats of Tau protein in two inserts. For overnight culture preparation, 10 mL of M9 medium containing 0.5% of glucose, 100 μg·mL^–1 ampicillin, and 12.5 μg·mL^–1 chloramphenicol were inoculated with a colony of BL21 (DE3) bearing the plasmids to be expressed at 37 °C. For expression of Tau protein, the required volume of overnight culture to obtain 1:500 dilution was added to fresh M9 minimal medium containing 0.5% of glucose, 50 μg·mL^–1 ampicillin, 12.5 μg·mL^–1 chloramphenicol, and 25 μM ThS. The bacterial culture was grown at 37 °C and 250 rpm. When the cell density reached ABS600 nm= 0.6, an amount of 980 μL of culture was transferred into Eppendorf tubes of 1.5 mL with 10 μL of each compound to be tested in DMSO and 10 μL of arabinose at 25%. The final concentration of the drug was fixed at 10 μM. The samples were grown overnight at 37 °C and 1400 rpm using a thermomixer (Eppendorf, Hamburg, Germany). As the control of maximal amyloid presence, the same amount of DMSO without the drug was added to the sample. In parallel, noninduced samples (in the absence of arabinose) were also prepared and used as controls for the amyloid absence. In addition, the absorbance at 600 nm of the samples was checked to assess the potential intrinsic toxicity of the compounds and to confirm the correct bacterial growth.
(§2) ThS (T1892) and other chemical reagents were purchased from Sigma (St. Louis, MO). ThS stock solution (25 mM) was prepared in double-distilled water purified through a Milli-Q system (Millipore). For the fluorescence assay, the ThS spectra were measured on an AMINCO-Bowman series 2 luminescence spectrophotometer (Aminco-Bowman AB2, SLM Aminco, Rochester, NY) from 460 to 600 nm at 25 °C using an excitation wavelength of 440 nm and slit widths of 4 nm. The emission at 485 nm (fluorescence peak of ThS in the presence of amyloids) was recorded. To normalize the ThS fluorescence as a function of the bacterial concentration, ABS600nm was obtained using a Shimadzu UV-2401 PC UV–Vis spectrophotometer (Shimadzu, Japan). Note that the fluorescence normalization was carried out considering as 100% the ThS fluorescence of the bacterial cells expressing the peptide or protein in the absence of the drug and 0% the ThS fluorescence of the bacterial cells nonexpressing the peptide or protein.

Aβ42 = molecular target: T2, Aβ42 (Homo sapiens, UniProt P05067); test: Inhibition of Aβ42 aggregation in intact E. coli cells overexpressing Aβ42 (ThS fluorescence); assay type: cell-based, Escherichia coli
T2 construct: expressed in transfected cells; host or cells: Escherichia coli BL21 (DE3), pET28a
Description: as §1
Escherichia coli competent cells BL21 (DE3) were transformed with the pET28a vector (Novagen, Inc., Madison, WI) carrying the DNA sequence of Aβ42. Because of the addition of the initiation codon ATG in front of both genes, the overexpressed peptide contains an additional methionine residue at its N terminus. For overnight culture preparation, an amount of 10 mL of M9 minimal medium containing 50 μg·mL^–1 kanamycin was inoculated with a colony of BL21 (DE3) bearing the plasmid to be expressed at 37 °C. For expression of the Aβ42 peptide, the required volume of overnight culture to obtain 1:500 dilution was added into fresh M9 minimal medium containing 50 μg·mL^–1 kanamycin and 250 μM ThS. The bacterial culture was grown at 37 °C and 250 rpm. When the cell density reached ABS600 nm = 0.6, an amount of 980 μL of culture was transferred into Eppendorf tubes of 1.5 mL with 10 μL of each compound to be tested in DMSO and 10 μL of isopropyl 1-thio-β-D-galactopyranoside (IPTG) at 100 mM. The final concentration of the drug was fixed at 10 μM. The samples were grown overnight at 37 °C and 1400 rpm using a thermomixer (Eppendorf, Hamburg, Germany). As the control of the amyloid presence (maximal amyloid presence), the same amount of DMSO without the drug was added to the sample. In parallel, noninduced samples (in the absence of IPTG) were also prepared and used as controls of the non-amyloid presence. In addition, the absorbance at 600 nm of the samples was checked to assess the potential intrinsic toxicity of the compounds and to confirm the correct bacterial growth.
as §2

[1] = tested on: cerebellar granule neurons (CGNs); test: Neurotoxicity on primary cultures of cerebellar granule neurons (nuclei counting after Hoechst staining); conditions: differentiated CGNs, 24 h, percentage of healthy nuclei on total nuclei, mean ± SEM of three experiments
[2] = read-out: % inhibition Aβ42 aggregation @ 10 μM, intact E. coli cells, compound 10 μM, mean ± SEM of four independent experiments

T2 sequence (P05067 672-713 limits assumed): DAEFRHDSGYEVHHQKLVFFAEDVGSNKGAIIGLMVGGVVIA
T1 sequence (P10636 1-441 isoform P10636-8): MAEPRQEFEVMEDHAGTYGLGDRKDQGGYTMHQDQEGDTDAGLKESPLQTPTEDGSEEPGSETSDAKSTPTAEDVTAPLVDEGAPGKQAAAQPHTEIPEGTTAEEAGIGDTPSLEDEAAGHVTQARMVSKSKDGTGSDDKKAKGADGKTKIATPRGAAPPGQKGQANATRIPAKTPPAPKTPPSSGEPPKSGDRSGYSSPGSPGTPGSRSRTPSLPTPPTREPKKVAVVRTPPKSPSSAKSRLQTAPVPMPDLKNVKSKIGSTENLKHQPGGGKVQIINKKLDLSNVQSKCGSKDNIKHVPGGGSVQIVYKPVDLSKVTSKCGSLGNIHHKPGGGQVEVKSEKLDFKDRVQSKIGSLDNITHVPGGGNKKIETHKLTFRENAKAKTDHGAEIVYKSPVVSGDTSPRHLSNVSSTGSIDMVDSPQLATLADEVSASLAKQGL

Structure (SMILES) | inhibition at 10 µM (Tau protein) [%] | inhibition at 10 µM (Aβ42; [2]) [%] | % survival neurotoxicity @ 10 μM [1] [%] | % inhibition Tau aggregation @ 10 μM (Tau protein; 10 µM) [%] | % inhibition Tau aggregation @ 10 μM (Tau protein) [%] | % inhibition Aβ42 aggregation @ 10 μM (Aβ42; intact E. coli cells, compound 10 μM, mean ± SEM of four independent experiments) [%] | inhibition at 10 µM (Aβ42; read-out: % inhibition Aβ42 aggregation @ 10 μM) [%]
O=C1NC(=O)/C(=C/c2ccc(/C=C3\SC(=O)NC3=O)cc2)S1 [Compound 1, (5Z,5′Z)-5,5′-(1,4-Phenylenebis(methanylylidene))bis(thiazolidine-2,4-dione)] | 19.4 ± 3.6 | 25.4 ± 1.9 | 77.6 ± 6.1 | – | – | – | –
O=C1NC(=O)/C(=C/c2ccc(-c3ccc(/C=C4\SC(=O)NC4=O)cc3)cc2)S1 [Compound 2, (5Z,5′Z)-5,5′-([1,1′-Biphenyl]-4,4′-diylbis(methanylylidene))bis(thiazolidine-2,4-dione)] | 16.5 ± 3.1 | 20.2 ± 2.1 | 81.3 ± 6.5 | – | – | – | –
O=C1NC(=O)/C(=C/c2ccc(Cc3ccc(/C=C4\SC(=O)NC4=O)cc3)cc2)S1 [Compound 3, (5Z,5′Z)-5,5′-((Methylenebis(4,1-phenylene))bis(methanylylidene))bis(thiazolidine-2,4-dione)] | 5.2 ± 2.7 | 12.9 ± 3.4 | 62.4 ± 9.6 | – | – | – | –
O=C1NC(=O)/C(=C/c2ccc3[nH]c4ccc(/C=C5\SC(=O)NC5=O)cc4c3c2)S1 [Compound 4, (5Z,5′Z)-5,5′-((9H-Carbazole-3,6-diyl)bis(methanylylidene))bis(thiazolidine-2,4-dione)] | 21.2 ± 2.6 | 24.7 ± 4.1 | 73.4 ± 5.1 | – | – | – | –
CC1(C)c2cc(/C=C3\SC(=O)NC3=O)ccc2-c2ccc(/C=C3\SC(=O)NC3=O)cc21 [Compound 5, (5Z,5′Z)-5,5′-((9,9-Dimethyl-9H-fluorene-2,7-diyl)bis(methanylylidene))bis(thiazolidine-2,4-dione)] | 14.8 ± 3 | 23.6 ± 2.6 | 67.9 ± 5.4 | – | – | – | –
O=C1NC(=O)/C(=C/c2ccc(-c3ccc(/C=C4\SC(=O)NC4=O)s3)s2)S1 [Compound 6, (5Z,5′Z)-5,5′-([2,2′-Bithiophene]-5,5′-diylbis(methanylylidene))bis(thiazolidine-2,4-dione)] | < 20 | 42.4 ± 4.5 | 89.9 ± 1.2 | 19.4 ± 3.9 | – | – | –
CCOC(=O)CN1C(=O)S/C(=C\c2ccc(-c3ccc(/C=C4\SC(=O)N(CC(=O)OCC)C4=O)cc3)cc2)C1=O [Compound 8, Diethyl 2,2′-((5Z,5′Z)-([1,1′-biphenyl]-4,4′-diylbis(methanylylidene))bis(2,4-dioxothiazolidin-3-yl-5-ylidene))diacetate] | 18.1 ± 3.2 | 14.3 ± 3.5 | 87.2 ± 3.1 | – | – | – | –
CCOC(=O)CN1C(=O)S/C(=C\c2ccc(Cc3ccc(/C=C4\SC(=O)N(CC(=O)OCC)C4=O)cc3)cc2)C1=O [Compound 9, Diethyl 2,2′-((5Z,5′Z)-((methylenebis(4,1-phenylene))bis(methanylylidene))bis(2,4-dioxothiazolidin-3-yl-5-ylidene))diacetate] | 19.9 ± 3.6 | 14.5 ± 4.1 | 88.7 ± 4.1 | – | – | – | –
CCOC(=O)CN1C(=O)S/C(=C\c2ccc3c(c2)C(C)(C)c2cc(/C=C4\SC(=O)N(CC(=O)OCC)C4=O)ccc2-3)C1=O [Compound 11, Diethyl 2,2′-((5Z,5′Z)-((9,9-dimethyl-9H-fluorene-2,7-diyl)bis(methanylylidene))bis(2,4-dioxothiazolidin-3-yl-5-ylidene))diacetate] | 33.1 ± 4.5 | 17.5 ± 4.5 | 85.8 ± 6.9 | – | – | – | –
CCOC(=O)CN1C(=O)S/C(=C\c2ccc(-c3ccc(/C=C4\SC(=O)N(CC(=O)OCC)C4=O)s3)s2)C1=O [Compound 12, Diethyl 2,2′-((5Z,5′Z)-([2,2′-bithiophene]-5,5′-diylbis(methanylylidene))bis(2,4-dioxothiazolidin-3-yl-5-ylidene))diacetate] | 9.2 ± 5 | 7 ± 3.7 | 90.2 ± 2.1 | – | – | – | –
O=C(O)CN1C(=O)S/C(=C\c2ccc(/C=C3\SC(=O)N(CC(=O)O)C3=O)cc2)C1=O [Compound 13, 2,2′-((5Z,5′Z)-(1,4-Phenylenebis(methanylylidene))bis(2,4-dioxothiazolidin-3-yl-5-ylidene))diacetic acid] | 25.3 ± 4.2 | 16.1 ± 3.9 | 82.3 ± 2.9 | – | – | – | –
O=C(O)CN1C(=O)S/C(=C\c2ccc(-c3ccc(/C=C4\SC(=O)N(CC(=O)O)C4=O)cc3)cc2)C1=O [Compound 14, 2,2′-((5Z,5′Z)-([1,1′-Biphenyl]-4,4′-diylbis(methanylylidene))bis(2,4-dioxothiazolidin-3-yl-5-ylidene))diacetic acid] | 27.1 ± 2.5 | 35.1 ± 1.9 | 89.0 ± 2.2 | – | – | – | –
O=C(O)CN1C(=O)S/C(=C\c2ccc(Cc3ccc(/C=C4\SC(=O)N(CC(=O)O)C4=O)cc3)cc2)C1=O [Compound 15, 2,2′-((5Z,5′Z)-((Methylenebis(4,1-phenylene))bis(methanylylidene))bis(2,4-dioxothiazolidin-3-yl-5-ylidene))diacetic acid] | 3.8 ± 5.2 | 26.2 ± 1.9 | 90.9 ± 1.5 | – | – | – | –
O=C(O)CN1C(=O)S/C(=C\c2ccc(-c3ccc(/C=C4\SC(=O)N(CC(=O)O)C4=O)s3)s2)C1=O [Compound 18, 2,2′-((5Z,5′Z)-([2,2′-Bithiophene]-5,5′-diylbis(methanylylidene))bis(2,4-dioxothiazolidin-3-yl-5-ylidene))diacetic acid] | < 20 | 65.6 ± 3.3 | 90.9 ± 3.1 | 15.8 ± 4.7 | – | – | –
CC1=CC2Cc3nc4cc(Cl)ccc4c(NCCCCCCCNc4c5c(nc6ccccc46)CCCC5)c3C(C1)C2 (stereo not drawn) [HUP7TH, reference compound] | – | – | – | – | 69.5 ± 1.6 | 77.6 ± 1.5 | –
CC1=CC2Cc3nc4cc(Cl)ccc4c(N)c3C(C1)C2 (stereo not drawn) [Huprine Y, huprine Y, reference compound] | – | – | – | – | – | – | 4.6 ± 2.3
O=C(O)c1cc(O)c2c(c1)C(=O)c1cccc(O)c1C2=O [Rhein, rhein, reference compound] | 39.2 ± 2.1 | – | – | – | – | – | –
